Values joined by “and” are separate entries in the source; they are usually repeats but may differ in a detail not shown here. Identical values can stand only once.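 How tested: cells in 96-well plates exposed to compound for 48 hours at five concentrations. GI50 is the concentration that inhibits growth by half. At the TGI there is no net growth.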 Some results are limits rather than exact numbers.

One assay has as its system HCT-116 colon. Description: inhibition of tumour cell growth, NCI panel, 48 h.
In turn, `Cc1ccc(S(=O)(=O)N/N=C/c2oc(-c3ccncc3)c(-c3ccncc3)c2[N+](=O)[O-])cc1` showed a TGI greater than 100 µM.

The subject of another assay is HCT-15 colon. Briefly: inhibition of tumour cell growth, NCI panel, 48 h.
On to `CCOc1ccc(N2C(=O)/C(=C/c3ccc(N(CCC#N)CCC#N)cc3)N=C2c2cc([N+](=O)[O-])ccc2Cl)cc1`, for which the TGI is greater than 100 µM.
Regarding `CCOC(=O)C(=Cc1cccc(Cl)c1)C(=O)OCC`, the GI50 is 1.96 µM and the TGI was 5.27 µM.
On to `CCOC(=O)C1(c2ccccc2)CCC(=O)CC1`, for which the TGI was greater than 100 µM.
For `C=CC(=O)N1CCC(C2CCNc3c(C(N)=O)c(-c4ccc(Oc5ccccc5)cc4)nn32)CC1` (stereo not given), the GI50 was 14.9 µM and the TGI amounted to 46.3 µM.
For `CCCCCCNC(=O)c1nc(-c2ccccc2)oc1Cc1ccc(OP(=O)(O)O)cc1`, the GI50 is 17.8 µM and the TGI was 37.2 µM.
On the same counts, the results for `Cc1ccc(/C=C/c2c(C(=O)/C=C/c3ccc(C(F)(F)F)cc3)c(C)nc3ccccc23)cc1` are 0.89 µM and 3.49 µM.
In the case of `CCCn1c(N)c(C(=O)N/N=C(/C)c2cc3cccc(OC)c3o2)sc1=S`, the GI50 is 22.1 µM and the TGI was greater than 100 µM.
In the case of `C=CCc1cccc(/C=N/NC(=O)CN2CCN(Cc3ccccc3)CC2)c1O`, the GI50 was 0.693 µM and the TGI was found to be 15.1 µM.
As for `O=c1cc2oc3cc(O)c(O)cc3c(-c3ccccc3O)c-2cc1O`, the GI50 is 38.3 µM and the TGI is greater than 100 µM.
Consider `CCCCCCC[CH2][Sn]1([CH2]CCCCCCC)[O]C(=O)c2cccnc2[S]1`, for which the GI50 was greater than 100 µM and the TGI was greater than 100 µM.
In turn, `N=c1ccn2c(n1)OC1C(O)C(CO)OC12` (stereo not given) came in with a TGI greater than 1000 µM.
`Cc1ccc(S(=O)(=O)N/N=C/c2oc(-c3ccncc3)c(-c3ccncc3)c2[N+](=O)[O-])cc1`: the TGI was greater than 100 µM.

Another assay concerns HL-60(TB) leukemia. Briefly: inhibition of tumour cell growth, NCI panel, 48 h.
Regarding `CCOc1ccc(N2C(=O)/C(=C/c3ccc(N(CCC#N)CCC#N)cc3)N=C2c2cc([N+](=O)[O-])ccc2Cl)cc1`, the TGI is greater than 100 µM.
Take `CCOC(=O)C(=Cc1cccc(Cl)c1)C(=O)OCC`: the GI50 was 2.18 µM and the TGI was 5.65 µM.
Compound `CCOC(=O)C1(c2ccccc2)CCC(=O)CC1` displayed a TGI greater than 100 µM.
Consider `C=CC(=O)N1CCC(C2CCNc3c(C(N)=O)c(-c4ccc(Oc5ccccc5)cc4)nn32)CC1` (stereo not given), for which the GI50 is 14.6 µM and the TGI came to 40.3 µM.
On the same counts, the results for `CCCCCCNC(=O)c1nc(-c2ccccc2)oc1Cc1ccc(OP(=O)(O)O)cc1` are 25.2 µM and 62.4 µM.
As for `Cc1ccc(/C=C/c2c(C(=O)/C=C/c3ccc(C(F)(F)F)cc3)c(C)nc3ccccc23)cc1`, the GI50 was 1.25 µM and the TGI was determined as 3.66 µM.
For the compound `CCCn1c(N)c(C(=O)N/N=C(/C)c2cc3cccc(OC)c3o2)sc1=S`, the GI50 is greater than 100 µM and the TGI was greater than 100 µM.
`C=CCc1cccc(/C=N/NC(=O)CN2CCN(Cc3ccccc3)CC2)c1O`: the GI50 was 1.6 µM and the TGI was 4.79 µM.
On to `O=c1cc2oc3cc(O)c(O)cc3c(-c3ccccc3O)c-2cc1O`, for which the GI50 was 33.5 µM and the TGI turned out to be 99.6 µM.
Take `CCCCCCC[CH2][Sn]1([CH2]CCCCCCC)[O]C(=O)c2cccnc2[S]1`: the GI50 is greater than 100 µM and the TGI was greater than 100 µM.
As to `N=c1ccn2c(n1)OC1C(O)C(CO)OC12` (stereo not given), the GI50 is 0.763 µM; the TGI was 69.7 µM and > 23.6 µM.
`Cc1ccc(S(=O)(=O)N/N=C/c2oc(-c3ccncc3)c(-c3ccncc3)c2[N+](=O)[O-])cc1` displayed a TGI greater than 100 µM.

The test system of a further assay is OVCAR-4 ovarian. Briefly: inhibition of tumour cell growth, NCI panel, 48 h.
With `CCOc1ccc(N2C(=O)/C(=C/c3ccc(N(CCC#N)CCC#N)cc3)N=C2c2cc([N+](=O)[O-])ccc2Cl)cc1`, the TGI was greater than 100 µM.
As for `CCOC(=O)C(=Cc1cccc(Cl)c1)C(=O)OCC`, the GI50 was 2.66 µM and the TGI is 8.87 µM.
`CCOC(=O)C1(c2ccccc2)CCC(=O)CC1` showed a TGI greater than 100 µM.
On to `C=CC(=O)N1CCC(C2CCNc3c(C(N)=O)c(-c4ccc(Oc5ccccc5)cc4)nn32)CC1` (stereo not given), for which the GI50 is 6.25 µM and the TGI amounted to 95.4 µM.
In the case of `CCCCCCNC(=O)c1nc(-c2ccccc2)oc1Cc1ccc(OP(=O)(O)O)cc1`, the GI50 was 16.6 µM and the TGI was 30.8 µM.
The corresponding values for `Cc1ccc(/C=C/c2c(C(=O)/C=C/c3ccc(C(F)(F)F)cc3)c(C)nc3ccccc23)cc1` are 1.61 µM and 3.37 µM.
On the same counts, the results for `CCCn1c(N)c(C(=O)N/N=C(/C)c2cc3cccc(OC)c3o2)sc1=S` are 49.7 µM and greater than 100 µM.
`C=CCc1cccc(/C=N/NC(=O)CN2CCN(Cc3ccccc3)CC2)c1O`: the GI50 is 1.45 µM and the TGI is 11.8 µM.
As to `O=c1cc2oc3cc(O)c(O)cc3c(-c3ccccc3O)c-2cc1O`, the GI50 is 11.5 µM and the TGI was greater than 100 µM.
The corresponding values for `CCCCCCC[CH2][Sn]1([CH2]CCCCCCC)[O]C(=O)c2cccnc2[S]1` are greater than 100 µM and greater than 100 µM.
On to `N=c1ccn2c(n1)OC1C(O)C(CO)OC12` (stereo not given), for which the GI50 is greater than 100 µM and the TGI is greater than 1000 µM.
In turn, `Cc1ccc(S(=O)(=O)N/N=C/c2oc(-c3ccncc3)c(-c3ccncc3)c2[N+](=O)[O-])cc1` had a TGI greater than 100 µM.

The subject of the next assay is RXF 393 renal. Description: inhibition of tumour cell growth, NCI panel, 48 h.
In the case of `CCOc1ccc(N2C(=O)/C(=C/c3ccc(N(CCC#N)CCC#N)cc3)N=C2c2cc([N+](=O)[O-])ccc2Cl)cc1`, the TGI is greater than 100 µM.
In the case of `CCOC(=O)C(=Cc1cccc(Cl)c1)C(=O)OCC`, the GI50 is 1.91 µM and the TGI was 3.53 µM.
`CCOC(=O)C1(c2ccccc2)CCC(=O)CC1` had a TGI greater than 100 µM.
Regarding `C=CC(=O)N1CCC(C2CCNc3c(C(N)=O)c(-c4ccc(Oc5ccccc5)cc4)nn32)CC1` (stereo not given), the GI50 is 9.22 µM and the TGI came to 26.6 µM.
Consider `CCCCCCNC(=O)c1nc(-c2ccccc2)oc1Cc1ccc(OP(=O)(O)O)cc1`, for which the GI50 is 16.7 µM and the TGI is 31.3 µM.
On to `Cc1ccc(/C=C/c2c(C(=O)/C=C/c3ccc(C(F)(F)F)cc3)c(C)nc3ccccc23)cc1`, for which the GI50 was 1.12 µM and the TGI amounted to 2.41 µM.
The corresponding values for `CCCn1c(N)c(C(=O)N/N=C(/C)c2cc3cccc(OC)c3o2)sc1=S` are 24.1 µM and greater than 100 µM.
Turning to `C=CCc1cccc(/C=N/NC(=O)CN2CCN(Cc3ccccc3)CC2)c1O`, the GI50 was 0.638 µM and the TGI turned out to be 16.1 µM.
Take `O=c1cc2oc3cc(O)c(O)cc3c(-c3ccccc3O)c-2cc1O`: the GI50 is 6.5 µM and the TGI is greater than 100 µM.
In the case of `CCCCCCC[CH2][Sn]1([CH2]CCCCCCC)[O]C(=O)c2cccnc2[S]1`, the GI50 was greater than 100 µM and the TGI is greater than 100 µM.
`N=c1ccn2c(n1)OC1C(O)C(CO)OC12` (stereo not given): the GI50 is greater than 25.1 µM and the TGI is greater than 1000 µM.
Consider `Cc1ccc(S(=O)(=O)N/N=C/c2oc(-c3ccncc3)c(-c3ccncc3)c2[N+](=O)[O-])cc1`, for which the TGI is greater than 100 µM.

A further assay has as its system SNB-75 CNS. Briefly: inhibition of tumour cell growth, NCI panel, 48 h.
For `CCOc1ccc(N2C(=O)/C(=C/c3ccc(N(CCC#N)CCC#N)cc3)N=C2c2cc([N+](=O)[O-])ccc2Cl)cc1`, the TGI is greater than 100 µM.
Consider `CCOC(=O)C(=Cc1cccc(Cl)c1)C(=O)OCC`, for which the GI50 was 2.12 µM and the TGI came out at 7.8 µM.
Consider `CCOC(=O)C1(c2ccccc2)CCC(=O)CC1`, for which the TGI is greater than 100 µM.
As for `C=CC(=O)N1CCC(C2CCNc3c(C(N)=O)c(-c4ccc(Oc5ccccc5)cc4)nn32)CC1` (stereo not given), the GI50 is 8.31 µM and the TGI was 38.6 µM.
For `CCCCCCNC(=O)c1nc(-c2ccccc2)oc1Cc1ccc(OP(=O)(O)O)cc1`, the GI50 is 13.1 µM and the TGI was 29.2 µM.
`Cc1ccc(/C=C/c2c(C(=O)/C=C/c3ccc(C(F)(F)F)cc3)c(C)nc3ccccc23)cc1`: the GI50 was 1.23 µM and the TGI is 2.48 µM.
Consider `CCCn1c(N)c(C(=O)N/N=C(/C)c2cc3cccc(OC)c3o2)sc1=S`, for which the GI50 was 30.1 µM and the TGI stood at 82.3 µM.
As for `C=CCc1cccc(/C=N/NC(=O)CN2CCN(Cc3ccccc3)CC2)c1O`, the GI50 is 2.57 µM and the TGI was found to be 12.9 µM.
On to `O=c1cc2oc3cc(O)c(O)cc3c(-c3ccccc3O)c-2cc1O`, for which the GI50 was 3.81 µM and the TGI was greater than 100 µM.
Consider `CCCCCCC[CH2][Sn]1([CH2]CCCCCCC)[O]C(=O)c2cccnc2[S]1`, for which the GI50 was greater than 100 µM and the TGI is greater than 100 µM.
`N=c1ccn2c(n1)OC1C(O)C(CO)OC12` (stereo not given): the GI50 was greater than 100 µM and the TGI is greater than 1000 µM.
`Cc1ccc(S(=O)(=O)N/N=C/c2oc(-c3ccncc3)c(-c3ccncc3)c2[N+](=O)[O-])cc1` yielded a TGI greater than 100 µM.

These data come from PubChem BioAssay (NCI).
